{"source": "patent US11919872B1", "about": "“N′-(2-(5-(4-chlorophenyl)-1,3,4-oxadiazol-2-ylthio)acetoxy)benzimidamide as an antimicrobial compound” (KING FAISAL UNIVERSITY, priority 2023, dated 2024)", "key": {"[1]": {"test_system": "Chrysosporium keratinophilum", "assay": "Agar plate disc-diffusion, antifungal inhibition zone", "assay_type": "cell-based", "settings": "Sabouraud's dextrose agar, 37° C., 72 hours", "procedure": "(§1) The agar plate disc-diffusion method was applied. Sterilized filter papers (6 mm in diameter) were wetted with 10 μL of a solution of N′-(2-(5-(4-chlorophenyl)-1,3,4-oxadiazol-2-ylthio)acetoxy)benzimidamide (3) to be tested, containing 10 mg/mL in DMSO, and the discs were allowed to air dry. The discs were then placed onto the surface of agar plates (nutrient agar for bacteria and Sabouraud's dextrose agar for fungi) seeded with the test organism. Each plate contained 15 mL of the agar medium, previously seeded with 0.2 mL of the broth culture of each organism pregrown for 18 hours. The plates were incubated at 37° C. for 48 hours and 72 hours for fungi. The inhibition zones were measured in mm. Discs impregnated with DMSO were used as a control, and their inhibition zone was subtracted from the tested compound's actual inhibition zone."}, "Aspergillus flavus": {"test_system": "Aspergillus flavus", "assay": "Agar plate disc-diffusion, antifungal inhibition zone", "assay_type": "cell-based", "settings": "Sabouraud's dextrose agar, 37° C., 72 hours", "procedure": "as §1"}, "Bacillus cereus": {"test_system": "Bacillus cereus", "assay": "Agar plate disc-diffusion, antibacterial inhibition zone", "assay_type": "cell-based", "settings": "nutrient agar, 37° C., 48 hours", "procedure": "as §1"}, "Pseudomonas aeruginosa": {"test_system": "Pseudomonas aeruginosa", "assay": "Agar plate disc-diffusion, antibacterial inhibition zone", "assay_type": "cell-based", "settings": "nutrient agar, 37° C., 48 hours", "procedure": "as §1"}, "Staphylococcus aureus": {"test_system": "Staphylococcus aureus", "assay": "Agar plate disc-diffusion, antibacterial inhibition zone", "assay_type": "cell-based", "settings": "nutrient agar, 37° C., 48 hours", "procedure": "as §1"}, "Escherichia coli": {"test_system": "Escherichia coli", "assay": "Agar plate disc-diffusion, antibacterial inhibition zone", "assay_type": "cell-based", "settings": "nutrient agar, 37° C., 48 hours", "procedure": "as §1"}, "[2]": {"settings": "A = concentration of comp. = 10,000 μg/mL"}, "[3]": {"settings": "B = concentration of comp. = 30,000 μL"}, "[4]": {"settings": "C = concentration of comp. = 50,000 μL"}, "[5]": {"settings": "A = concentration of comp. = 10,000 μL"}}, "note": "Values joined by “and” are separate entries in the source; they are usually repeats but may differ in a detail not shown here. Identical values can stand only once.", "data": [{"smiles": "N/C(=N\\OC(=O)CSc1nnc(-c2ccc(Cl)cc2)o1)c1ccccc1", "note": "[Compound 3, N′-(2-(5-(4-chlorophenyl)-1,3,4-oxadiazol-2-ylthio)acetoxy)benzimidamide]", "values": [{"measurement": "melting point", "result": "~ 174 °C and 174 °C"}, {"measurement": "inhibition zone, Chrysosporium keratinophilum", "setting": "[1]; [2]", "result": 24, "unit": "mm"}, {"measurement": "inhibition zone, Chrysosporium keratinophilum", "setting": "[1]; [3]", "result": 29, "unit": "mm"}, {"measurement": "inhibition zone, Chrysosporium keratinophilum", "setting": "[1]; [4]", "result": 50, "unit": "mm"}, {"measurement": "inhibition zone, Aspergillus flavus", "setting": "Aspergillus flavus; [2]", "result": 27, "unit": "mm"}, {"measurement": "inhibition zone, Aspergillus flavus", "setting": "Aspergillus flavus; [3]", "result": 29, "unit": "mm"}, {"measurement": "inhibition zone, Aspergillus flavus", "setting": "Aspergillus flavus; [4]", "result": 38, "unit": "mm"}, {"measurement": "inhibition zone, Bacillus Cereus", "setting": "Bacillus cereus; [5]", "result": 27, "unit": "mm"}, {"measurement": "inhibition zone, Bacillus Cereus", "setting": "Bacillus cereus; [3]", "result": 29, "unit": "mm"}, {"measurement": "inhibition zone, Bacillus Cereus", "setting": "Bacillus cereus; [4]", "result": 40, "unit": "mm"}, {"measurement": "inhibition zone, Pseudomonas aeruginosa", "setting": "Pseudomonas aeruginosa; [5]", "result": 25, "unit": "mm"}, {"measurement": "inhibition zone, Pseudomonas aeruginosa", "setting": "Pseudomonas aeruginosa; [3]", "result": 29, "unit": "mm"}, {"measurement": "inhibition zone, Pseudomonas aeruginosa", "setting": "Pseudomonas aeruginosa; [4]", "result": 50, "unit": "mm"}, {"measurement": "inhibition zone, Staphylococcus aureus", "setting": "Staphylococcus aureus; [5]", "result": 38, "unit": "mm"}, {"measurement": "inhibition zone, Staphylococcus aureus", "setting": "Staphylococcus aureus; [3]", "result": 42, "unit": "mm"}, {"measurement": "inhibition zone, Staphylococcus aureus", "setting": "Staphylococcus aureus; [4]", "result": 52, "unit": "mm"}, {"measurement": "inhibition zone, Escherichia coli", "setting": "Escherichia coli; [5]", "result": 22, "unit": "mm"}, {"measurement": "inhibition zone, Escherichia coli", "setting": "Escherichia coli; [3]", "result": 33, "unit": "mm"}, {"measurement": "inhibition zone, Escherichia coli", "setting": "Escherichia coli; [4]", "result": 46, "unit": "mm"}]}, {"smiles": "O=C(O)c1cn(C2CC2)c2cc(N3CCNCC3)c(F)cc2c1=O", "note": "[Cip., ciprofloxacin, reference compound]", "values": [{"measurement": "inhibition zone, Chrysosporium keratinophilum", "setting": "[1]; [2]", "result": 29, "unit": "mm"}, {"measurement": "inhibition zone, Chrysosporium keratinophilum", "setting": "[1]; [3]", "result": 30, "unit": "mm"}, {"measurement": "inhibition zone, Chrysosporium keratinophilum", "setting": "[1]; [4]", "result": 53, "unit": "mm"}, {"measurement": "inhibition zone, Aspergillus flavus", "setting": "Aspergillus flavus; [2]", "result": 29, "unit": "mm"}, {"measurement": "inhibition zone, Aspergillus flavus", "setting": "Aspergillus flavus; [3]", "result": 30, "unit": "mm"}, {"measurement": "inhibition zone, Aspergillus flavus", "setting": "Aspergillus flavus; [4]", "result": 42, "unit": "mm"}, {"measurement": "inhibition zone, Bacillus Cereus", "setting": "Bacillus cereus; [5]", "result": 29, "unit": "mm"}, {"measurement": "inhibition zone, Bacillus Cereus", "setting": "Bacillus cereus; [3]", "result": 30, "unit": "mm"}, {"measurement": "inhibition zone, Bacillus Cereus", "setting": "Bacillus cereus; [4]", "result": 42, "unit": "mm"}, {"measurement": "inhibition zone, Pseudomonas aeruginosa", "setting": "Pseudomonas aeruginosa; [5]", "result": 29, "unit": "mm"}, {"measurement": "inhibition zone, Pseudomonas aeruginosa", "setting": "Pseudomonas aeruginosa; [3]", "result": 30, "unit": "mm"}, {"measurement": "inhibition zone, Pseudomonas aeruginosa", "setting": "Pseudomonas aeruginosa; [4]", "result": 53, "unit": "mm"}, {"measurement": "inhibition zone, Staphylococcus aureus", "setting": "Staphylococcus aureus; [5]", "result": 43, "unit": "mm"}, {"measurement": "inhibition zone, Staphylococcus aureus", "setting": "Staphylococcus aureus; [3]", "result": 44, "unit": "mm"}, {"measurement": "inhibition zone, Staphylococcus aureus", "setting": "Staphylococcus aureus; [4]", "result": 53, "unit": "mm"}, {"measurement": "inhibition zone, Escherichia coli", "setting": "Escherichia coli; [5]", "result": 30, "unit": "mm"}, {"measurement": "inhibition zone, Escherichia coli", "setting": "Escherichia coli; [3]", "result": 39, "unit": "mm"}, {"measurement": "inhibition zone, Escherichia coli", "setting": "Escherichia coli; [4]", "result": 60, "unit": "mm"}]}]}
